Like-named read-outs stand apart in the source and are kept apart here. Each block holds one compound with its values, some of them ahead of it.
How the values were obtained:
[1] = Plasma 5-HTP levels in mice given 5-HTP and/or carbidopa via food for 14 days; format: in vivo; conditions: for augmentation of the 5-HTP plasma elevation induced by 5-HTP: carbidopa 2, 5 or 10 mg/kg/day added to 5-HTP 200 mg/kg/day, similar in WT and 5-HTHypo mice
Text: (§1) Mice: Adult mice were used, both wildtype (WT) mice with normal 5-HT levels and ‘5-HTHypo’ mice with reduced brain 5-HT synthesis and levels (Beaulieu et al, 2008). The 5-HTHypo mice are a naturalistic model of brain 5-HT deficiency, which is known to be a pathogenic factor in several CNS disorders, e.g. depression and suicide.
(§2) Drug treatments: Carbidopa was used as a PDI. To model oral drug delivery occurring in humans during a therapeutic scenario, 5-HTP and carbidopa was delivered via the mouse food (standard chow). This approach distributed the drug delivery over time, imparting a measure of ‘slow-release’ (aka sustained-, extended-, time-, controlled-release) delivery. 5-HTP was administered in a dose of 200 mg/kg/day. Carbidopa was administered in doses of 2, 5 or 10 mg/kg/day in addition to 5-HTP, to assess the effect of carbidopa on the outcomes of 5-HTP treatment. To assess the effect of carbidopa alone, groups of mice were also administered carbidopa 10 mg/kg/day, the highest carbidopa dose, without concomitant 5-HTP. Comparisons were made to untreated mice. Duration of all treatments was 14 days, which is considered chronic in mouse experiments.
(§3) Sample collection: During treatments blood samples were collected to assess plasma levels of 5-HTP and carbidopa. At end of treatments mice were euthanized and brain tissues (frontal cortex) were collected.
(§4) Quantitative analysis: Levels of plasma 5-HTP, plasma carbidopa, brain 5-HT, and brain 5-hydroxyindoleacetic acid (5-HIAA, major 5-HT metabolite) were quantified using HPLC, as described (Jacobsen et al, 2012b). The limits of detection for 5-HT and 5-HTP in plasma were 1 ng/ml and for carbidopa in plasma 2 ng/ml (FIG. 4C).

brain 5-HT = assay: Brain (frontal cortex) 5-HT tissue levels in mice after 14 days of treatment; format: in vivo; conditions: for augmentation of the brain 5-HT tissue elevation induced by 5-HTP: carbidopa 2, 5 or 10 mg/kg/day added to 5-HTP 200 mg/kg/day, more pronounced in 5-HTHypo mice
Text: as §1, §2, §3, §4

brain 5-HIAA = assay: Brain (frontal cortex) 5-HIAA tissue levels in mice after 14 days of treatment; format: in vivo; conditions: for augmentation of the brain 5-HIAA tissue elevation induced by 5-HTP: carbidopa 2, 5 or 10 mg/kg/day added to 5-HTP 200 mg/kg/day, more pronounced in 5-HTHypo mice
Text: as §1, §2, §3, §4

[2] = cited from earlier work
[3] = animal studies (Shindo et al, 1977); cited from earlier work
[4] = test system: aromatic amino acid decarboxylase enzyme (AAAD); conditions: after oral administration (Da Prada et al, 1987); cited from earlier work
[5] = animals; including kidney insufficiency and growth anomalies; cited from earlier work
[6] = HPLC electrochemical quantification of carbidopa in mouse plasma; format: in vivo, mice
Description: FIG. 4A-4D. HPLC electrochemical quantification of carbidopa in plasma. FIG. 4A: 10 ng/ml standard in perchloric acid. Carbidopa peak visible at 24 min. FIG. 4B: Plasma extract from mouse not treated with carbidopa. […] Baseline undulations at 24 min is detector noise. FIG. 4C: Plasma extract from a mouse not treated with carbidopa, but the plasma spiked with carbidopa to a concentration of 2 ng/ml prior to extraction. Carbidopa peak visible at 24 min. FIG. 4D: Plasma extract from mouse treated with 10 mg/kg/day carbidopa. […] Baseline undulations at 24 min is detector noise, as indicated.
as §2, §3, §4

[7] = Carbidopa plasma levels in humans at therapeutic doses (literature); format: in vivo; conditions: reported human chronic studies with carbidopa and 5-HTP; extrapolated across references
[8] = cited from earlier work; remark: listed apart in the source
[9] = 5-HTP 200 mg/kg/day alone via food, 14 days, vs untreated
[10] = carbidopa 10 mg/kg/day alone, without 5-HTP, 14 days
[11] = steady state, therapeutic scenario

levels of plasma 5-HTP ([1]; 5-HTP 200 mg/kg/day alone via food, 14 days, vs untreated, WT and 5-HTHypo mice): elevated
Compound: N[C@@H](Cc1c[nH]c2ccc(O)cc12)C(=O)O [5-HTP, 5-hydroxytryptophan]
levels of brain 5-HT (brain 5-HT; [9]): elevated
levels of brain 5-HIAA (brain 5-HIAA; [9]): elevated
oral bioavailability ([2]; 5-HTP (Gijsman et al, 2002)): modest
T1/2 (elimination half-life) ([2]; 5-HTP in humans, oral): ~2 h
TMax ([2]; 5-HTP in humans, oral): ~1 h
T1/2 ([2]; immediate-release oral 5-HTP): about 2 hours
TMax ([2]; immediate-release oral 5-HTP): 1 to 2 h
exogenously administered 5-HTP converted to 5-HT during transport over the intestinal wall [3]: more than 50%

Compound: NC(CO)C(=O)NNCc1ccc(O)c(O)c1O (centres unmarked) [benserazide]
potency as inhibitor of AAAD in the peripheral organs relative to carbidopa [4]: 10 fold
toxicity of chronic PDI treatment without levodopa [5]: significant toxic effects

enhancing 5-HTP bioavailability and pharmacodynamic (brain 5-HT) effects ([1]; 5-HTP:carbidopa ratios of 20:1 to 100:1): effective
effect on plasma 5-HTP [1, 10]: no effects
augmentation of the 5-HTP plasma elevation induced by 5-HTP [1]: manifold and dose-dependently augmented
augmentation of the 5-HTP plasma elevation induced by 5-HTP ([1]; listed as Carbidopa): dose-dependently augmented
plasma carbidopa levels ([6]; carbidopa 10 mg/kg/day, the highest dose, limit of detection 2 ng/ml): < 2 ng/mL
carbidopa peak in HPLC of plasma extract (FIG. 4D) ([6]; mouse treated with 10 mg/kg/day carbidopa): No carbidopa peak visible
plasma exposure levels lower than usual systemically active levels ([6]; relative to 25 ng/ml): at least 12 times
average carbidopa plasma levels [7]: > 25 ng/mL
Compound: C[C@@](Cc1ccc(O)c(O)c1)(NN)C(=O)O [carbidopa]
effect on brain 5-HT (brain 5-HT; [10]): no effects
augmentation of the brain 5-HT tissue elevation induced by 5-HTP (brain 5-HT): manifold and dose-dependently augmented
augmentation of the brain 5-HT tissue elevation induced by 5-HTP (brain 5-HT; listed as Carbidopa): dose-dependently augmented
effect on brain 5-HIAA (brain 5-HIAA; [10]): no effects
augmentation of the brain 5-HIAA tissue elevation induced by 5-HTP (brain 5-HIAA): manifold and dose-dependently augmented
augmentation of the brain 5-HIAA tissue elevation induced by 5-HTP (brain 5-HIAA; listed as Carbidopa): dose-dependently augmented
usual systemically active plasma levels ([8]; Verhagen et al, 2015, Yeh et al, 1989): 25 ng/mL
average plasma levels of carbidopa at maintenance doses [8, 11]: ≥ 25 ng/mL
range of average plasma levels of carbidopa at maintenance doses [8, 11]: 25 to 150 ng/mL
toxicity of chronic PDI treatment without levodopa [5]: significant toxic effects
